{"source": "ChEMBL document CHEMBL4118227", "about": "“Hexahydrobenzophenanthridine alkaloids from Corydalis bungeana Turcz. and their anti-inflammatory activity” (Bioorg Med Chem Lett, 2018)", "system": "RAW264.7", "test": "Antiinflammatory activity against mouse RAW264.7 cells assessed as inhibition of LPS induced nitric oxide production preincubated for 2 hrs followed by LPS challenge measured after 24 hrs by Griess reagent based assay", "type": "functional, cell-based", "note": "pIC50: −log10 of the molar value.", "data": [{"smiles": "COC(=O)C[C@H]1c2c(ccc3c2OCO3)[C@@]2(C)[C@@H](OC(C)=O)Cc3cc4c(cc3[C@H]2N1C)OCO4", "values": [{"measurement": "pIC50", "result": 5.69}]}, {"smiles": "CN1Cc2c(ccc3c2OCO3)[C@@]2(C)[C@@H](O)Cc3cc4c(cc3[C@@H]12)OCO4", "values": [{"measurement": "pIC50", "result": 5.60}]}, {"smiles": "CC(=O)O[C@H]1Cc2cc3c(cc2[C@H]2[C@@]1(C)c1ccc4c(c1C[N@@+]2(C)[O-])OCO4)OCO3", "values": [{"measurement": "pIC50", "result": 4.47}]}, {"smiles": "COC(=O)C[C@H]1c2c(ccc3c2OCO3)[C@@]2(C)[C@@H](OC(C)=O)Cc3cc4c(cc3[C@@H]2N1C)OCO4", "values": [{"measurement": "pIC50", "result": 5.66}]}, {"smiles": "C[C@@]12c3ccc4c(c3C[N@@+](C)([O-])[C@H]1c1cc3c(cc1C[C@@H]2O)OCO3)OCO4", "values": [{"measurement": "pIC50", "result": 5.55}]}, {"smiles": "CC(=O)O[C@H]1Cc2cc3c(cc2[C@@H]2[C@@]1(C)c1ccc4c(c1C[N@@+]2(C)[O-])OCO4)OCO3", "values": [{"measurement": "pIC50", "result": 5.65}]}, {"smiles": "CC(=O)O[C@H]1Cc2cc3c(cc2[C@H]2N(C)Cc4c(ccc5c4OCO5)[C@@]12C)OCO3", "values": [{"measurement": "pIC50", "result": 4.64}]}, {"smiles": "CC(=O)O[C@H]1Cc2cc3c(cc2[C@@H]2N(C)Cc4c(ccc5c4OCO5)[C@@]12C)OCO3", "values": [{"measurement": "pIC50", "result": 6.00}]}, {"smiles": "COc1cc2c(cc1O)C1Cc3ccc4c(c3CN1CC2)OCO4", "note": "(stereo not given) [CHEILANTHIFOLINE]", "values": [{"measurement": "pIC50", "result": 5.73}]}, {"smiles": "CN(C)c1ccc(O)c2c1C[C@H]1C[C@H]3[C@H](N(C)C)C(O)=C(C(N)=O)C(=O)[C@@]3(O)C(O)=C1C2=O", "note": "[MINOCYCLINE]", "values": [{"measurement": "pIC50", "result": 4.50}]}]}
